Assay [1] has as its target T1, DR15 (DRB1*15:01) (Homo sapiens, UniProt P01903+P01911).
T1 construct: The open reading frame for DRA or DRB1 were flanked with Xho 1 and EcoR1 sites; expressed in transfected cells
Briefly: 96-well plate peptide binding assay, DR15-expressing 3T3 cells, SA-β-gal/4MUG. To be noted: parental vs. DR15-expressing 3T3 cells; MBP83-99 5 µM. The procedure: (§1) Figure 3 Detection and screening system of antigen peptide binding to HLA on 3T3 cells in 96 well plate. (A) Scheme of the detection of HLA-bound peptides on cells in 96 well plates. HLA expressing cells are incubated with biotinylated antigen peptides, and bound peptides are probed with SA-β-gal, followed by enzyme reaction with chromogenic (ONPG) or fluorogenic substrate (4MUG). (B) Detection of HLA-bound peptides on 3T3 cells using fluorogenic substrate (4MUG) in 96 well plates. Two 96-well plates of DR15-expressing cells were incubated with MBP83-99 for 6 h, fixed with glutaraldehyde, and subjected to blocking with a blocking solution as detailed in the methods section. Thereafter, biotinylated peptides in one plate were probed with low concentration of SA-β-gal (3,000-fold dilution) and detected by using 4MUG. The other plate was analysed using a chromogenic substrate (ONPG) in Supplementary Fig. 3. (C) Time and concentration dependence of MBP83-99 binding to DR15-expressing 3T3 cells. The assay was conducted as in (B).
(§2) Unless otherwise described, the assay was conducted as follows. […] The reaction was stopped by addition of 100 µL of 0.5 M Na2CO3, and fluorescence intensity (Ex: 365 nm, Em: 450 nm) was measured by using a plate reader (Spectra Max plus, Molecular Devices, Sunnyvale, CA, USA). Wells devoid of cells and incubation with biotinylated peptide, but otherwise treated by using the same experimental procedure, were set as blank, and the mean fluorescence value for the wells was subtracted. The apparent Kd values for the binding of MBP83-99 and DR1 (DRB1*01:01) or DR15 (DRB1*15:01) was calculated by double reciprocal plot (1/[P-HLA] = Kd/[HLA]total [P] + 1/[HLA]total; where P represents peptide) or Scatchard plot ([P-HLA]/[P] = [HLA]total/Kd − [P-HLA]/Kd) after subtracting values for HLA-independent peptide binding (parental 3T3 cells) from the respective cells in a peptide concentration dependency experiment. […]

The target of assay [2] is T2, DR15 (DRB1*15:01) (Homo sapiens, UniProt P01903+P01911, OTHER:DRA*01:01ANDEACHDRB1VECTORSWEREINTRODUCEDINTOTHECELLSAT1:1RATIO/OTHER:MBP83-99TODR15(DRB1*15:01)).
T2 construct: The open reading frame for DRA or DRB1 were flanked with Xho 1 and EcoR1 sites; expressed in transfected cells
Described as above. To be noted: live DR15-expressing 3T3, 96-well, 4MUG, 8-h incubation, parental binding subtracted. The procedure:
as §1, §2

Assay [3] concerns the target T3, DR1 (DRB1*01:01) (Homo sapiens, UniProt P01903+P01911, A100R/D57E/F55L/F60I/F76Y/I96L/L162R/M171V/P40L/Q125E/R42F/V115G/Y59C).
T3 construct: The open reading frame for DRA or DRB1 were flanked with Xho 1 and EcoR1 sites; expressed in transfected cells
The experiment in a line: 96-well plate peptide binding assay, DR1-expressing 3T3 cells, SA-β-gal/4MUG. The following applies: for Kd: live DR1-expressing 3T3, 96-well, 4MUG, parental binding subtracted.

For assay [4], the target named is T4, HLA-DR1 (DRA*01:01/DRB1*01:01) (Homo sapiens, UniProt P01903+P01911, A100R/D57E/F55L/F60I/F76Y/I96L/L162R/M171V/P40L/Q125E/R42F/V115G/Y59C). Briefly: FACS binding of biotinylated peptide to HLA-DR1 on HEK293T cells. The following applies: SA-PE, biotinylated peptide 30 µM, >5 h, 3 to 6 independent experiments.
The test system of assay [5] is HLA-DR (DRB1*01:01, DRB1*04:05, DRB1*09:01, DRB1*15:01). Briefly: FACS binding of biotinylated peptide to panel of HLA-DR on HEK293T cells. Further details: species or system human. To be noted: FACS, SA-PE; […]; biotinylated peptide 30 µM, >5 h. (Flow cytometry measures light scatter and fluorescence of single cells or particles in a stream.)
Assay [6] has as its target T4, HLA-DR1 (DRA*01:01/DRB1*01:01). Briefly: FACS binding of biotinylated peptide to HLA-DR1 on stable 3T3 cells. The following applies: SA-PE, stable 3T3, DRA*01:01 + DRB1*01:01, biotinylated peptide 30 µM overnight.
Assay [7] deals with HLA-DR (DRB1*01:01, DRB1*04:05, DRB1*09:01, DRB1*15:01). The experiment in a line: FACS binding of biotinylated peptide to panel of HLA-DR on stable 3T3 cells. Further details: species or system human. The following applies: Supplemental Fig. 1 vs. Supplemental Fig. 2.
For assay [8], the system named is parental 3T3 cells. The experiment in a line: FACS binding of biotinylated peptide to parental 3T3 cells. Further details: species or system murine. To be noted: SA-PE, parental 3T3, no HLA-DR, biotinylated peptide 30 µM overnight.
Assay [9] deals with parental 3T3 cells. Briefly: 96-well plate peptide binding assay, parental 3T3 cells, SA-β-gal/4MUG. Further details: species or system murine. The following applies: SA-β-gal 3,000-fold.
In assay [10] the test system is DRB1 molecules (almost all genotypes). To be noted: ref [25]; cited from earlier work.
The target of assay [11] is T1, DR15 (DRB1*15:01). The experiment in a line: 96-well competition assay: inhibition of MBP83-99 loading to DR15-expressing 3T3 cells. Format: binding. To be noted: DR15-expressing 3T3; 1 h pre-incubation, then MBP83-99 6 h; 4MUG.
Assay [12] has as its target T3, DR1 (DRB1*01:01). Briefly: 96-well competition assay: inhibition of MBP83-99 loading to DR1-expressing 3T3 cells. The assay is classed as binding. The following applies: DR1-expressing 3T3; 1 h pre-incubation, then MBP83-99 (5 µM) 6 h; 4MUG.
Assay [13] deals with HLA-DR4 (DRA*01:01/DRB1*04:05) (Homo sapiens, UniProt P01903+P01911, A100R/A169T/D86S/F76Y/I96L/K127E/L162R/M171V/N62H/P40V/Q125Y/R42H/S133A/S149N/S66Y/V115G/V209L/W38E). Briefly: FACS binding of biotinylated peptide to HLA-DR4 on HEK293T cells.
For assay [14], the system named is HEK293T cells (non-transfected). Format: binding. The following applies: FACS, SA-PE, biotinylated peptide 30 µM, >5 h.
In a further assay the target is DR4 (DRB1*04:05) (Homo sapiens, UniProt P01903+P01911, A100R/A169T/D86S/F76Y/I96L/K127E/L162R/M171V/N62H/P40V/Q125Y/R42H/S133A/S149N/S66Y/V115G/V209L/W38E). The following applies: ref [24]; cited from earlier work. On the procedure:
To determine the genotype specificity and relative affinity of known epitope peptides, MBP83-99 and BiP336-355 peptide loading assays were performed on cells expressing DRA*01:01 plus various HLA-DRB1 (Supplemental Fig. 1A). […] However, the extent of peptide loading, which is evaluated by the mean fluorescence intensity (MFI), was the highes ...

Entries after “also recorded” stand apart in the source; their conditions may differ. Like-named read-outs stand apart in the source and are kept apart here.

Regarding `CC[C@H](C)[C@H](NC(=O)[C@H](CC(N)=O)NC(=O)[C@H](CCCCN)NC(=O)[C@H](Cc1ccccc1)NC(=O)[C@H](Cc1ccccc1)NC(=O)[C@H](Cc1c[nH]cn1)NC(=O)[C@@H](NC(=O)[C@@H](NC(=O)[C@@H]1CCCN1C(=O)[C@H](CC(N)=O)NC(=O)[C@@H](N)CCC(=O)O)C(C)C)C(C)C)C(=O)N[C@H](C(=O)N[C@H](C(=O)N1CCC[C@H]1C(=O)N[C@@H](CCCNC(=N)N)C(=O)N[C@H](C(=O)N1CCC[C@H]1C(=O)O)[C@@H](C)O)[C@@H](C)O)C(C)C` [MBP83-99, myelin basic protein (MBP) 83–99], the “HLA-independent binding share of apparent signal, DR15 cells” value on DR15 (DRB1*15:01) [1] was less than 10%. Further, the Kd stood at 3 µM at DR15 (DRB1*15:01) [2] (Scatchard plot, R² = 0.8781, read-out: apparent Kd, DR15, Scatchard plot); 2 µM on DR15 (DRB1*15:01) [2] (double reciprocal plot, R² = 0.9378, read-out: apparent Kd, DR15, double reciprocal plot); 14 µM at DR1 (DRB1*01:01) [3] (Scatchard plot, R² = 0.8216, read-out: apparent Kd, DR1, Scatchard plot); 10 µM on DR1 (DRB1*01:01) [3] (double reciprocal plot, R² = 0.99, read-out: apparent Kd, DR1, double reciprocal plot). At DR1 (DRB1*01:01) [3] (parental vs. DR1-expressing 3T3 cells, MBP83-99 5 µM), the “HLA-independent binding share of apparent signal, DR1 cells” value is given as less than 30%.

As to “ACPKYVKQNTLKLATG [HA305-320, influenza hemagglutinin (HA) 305–320, biotinylated influenza hemagglutinin peptide]”, in [4], the “Peptide binding (MFI), HLA-DR1” value is “the highest level”. In addition, the “Peptide binding across HLA-DR genotypes” value in assay [5] is “did increase in any genotypes of DRB1-expressing cells”. For the same molecule, in assay [6], the “Peptide binding, DR1 on 3T3” value is “increased in cells expressing HLA, especially DR1; also recorded: could be loaded onto HLA to a sufficient level”. Further, the “Binding intensity in 3T3 compared with HEK293T cells” value in assay [7] is given as “far less than those in HEK293T cells”. Also, the “Peptide binding to parental 3T3 cells (HLA-independent)” value in the assay on parental 3T3 cells [8] is on record as “significant degree of apparent binding; also recorded: bound to the cell surface independently of HLA, especially avidly in 3T3 cells”. Also, the “Peptide binding to parental 3T3 cells, 96-well, and after maximum” value at DR1 (DRB1*01:01) [3] was “gradually decreased”. The “HLA-independent binding share of entire signal, DR1 cells” value at DR1 (DRB1*01:01) [3] ([…], HA305-320, obtained at 8 h) was “exceeded 80%”. The “Time to maximum binding, DR1” value on DR1 (DRB1*01:01) [3] ([…], then gradually decreased) came out at 8 h. For the same molecule, at DR1 (DRB1*01:01) [3] (cell-based 96-well assay, […]), the “Time to almost plateau loading (Discussion)” value was approximately 8 h. Also, the “Peptide loading, parental 3T3, 96-well” value in the assay with parental 3T3 cells [9] is listed as “a significant amount of HA305-320 binding was observed in the parental cells”. For the same molecule, the “Binding to DRB1 genotypes” value in assay [10] is given as “bind to almost all genotypes of DRB1 molecules; also recorded: binds to every genotype of HLA-DRs”.

With “LMAKARQKVLMPSTMLP [scCLIP, scramble peptide (scCLIP), scramble version of the CLIP peptide]”, the “Inhibitory effect on MBP83-99 loading, DR15” value on DR15 (DRB1*15:01) [11] was “no inhibitory effect”. On DR1 (DRB1*01:01) [12], the “Inhibitory effect on MBP83-99 loading, DR1” value is “no inhibitory effect”.

Turning to “RSTMKPVQKVLEDSDLKKSD [BiP336-355, immunoglobulin binding protein (BiP) 336–355, biotinylated self-antigen peptide of BiP]”, in assay [13] (HEK293T, DRB1*04:05, incubation extended to 20 h, data not shown), the “Peptide binding (MFI), HLA-DR4, extended incubation” value is given as “could not observe a further increase”. Also, in [13] (SA-PE, HEK293T transiently expressing DRA*01:01 + DRB1*04:05, biotinylated peptide 30 µM, >5 h), the “Peptide binding (MFI), HLA-DR4” value is given as “could bind to DR4-expressing HEK293T cells, although very slightly”. Further, the “Peptide binding across HLA-DR genotypes” value in assay [5] was “not to other DR-expressing cells”. In [14], the “Peptide binding to control cells” value is recorded as “No loading of either peptide was observed”. Besides, the “Presentation by DR4” value at DR4 (DRB1*04:05) is reported as “self-antigen presented by DR4 (DRB1*04:05)”.

These data come from article PMC5533769, “A cell-based high-throughput screening assay system for inhibitor compounds of antigen presentation by HLA class II molecule” (Scientific Reports, 2017).
